These results are taken from the NIST ThermoML archive (doi:10.1021/acs.jced.8b00302).

This data set can be described thus: wn = mass fraction of the nth substance listed. The note with it: 298.2 K, 100 kPa, Liquid, Gravity bottle method.

Numbers after ± are expanded uncertainties.

For `O=S(=O)([O-])[O-].[Rb+].[Rb+]` [rubidium sulfate] + O, the mass density (w1 = 0.6463) was determined as 2016.2 ± 10 kg/m3.

Regarding `O=S(=O)([O-])[O-].[Mg+2]` [magnesium sulfate] + O, under “w1 = 0.2743”, the mass density came out at 1293 ± 10 kg/m3.

Regarding `O=S(=O)([O-])[O-].[Cs+].[Cs+]` [cesium sulfate] + O, the mass density runs as follows: (w1 = 0.3365) 1363.1 ± 10 kg/m3; (w1 = 0.6463) 2016.2 ± 10 kg/m3.

A word on the mass density: it is the mass of a sample divided by its volume.
